Assay results taken from ChEMBL document CHEMBL4699645 (2020).
Where a SMILES comes first, the peptide text is derived from it. Bridges are numbered along the chain shown (N, C = ends).

Assays:
[1] = Antagonist activity at rat alpha3beta2 nAChR S113R mutant expressed in Xenopus laevis oocytes assessed as inhibition of Ach-induced response at -70 mV holding potential measured after 5 mins by voltage-clamp assay; type: cell-based; conditions: Oocyte
[2] = Antagonist activity at rat alpha3beta2 nAChR F106V mutant expressed in Xenopus laevis oocytes assessed as inhibition of Ach-induced response at -70 mV holding potential measured after 5 mins by voltage-clamp assay; type: cell-based; conditions: Oocyte
[3] = system: Oocyte; assay: Antagonist activity at rat alpha3beta2 nAChR S108T mutant expressed in Xenopus laevis oocytes assessed as inhibition of Ach-induced response at 1 uM at -70 mV holding potential measured after 5 mins by voltage-clamp assay relative to control; type: cell-based
[4] = Antagonist activity at rat alpha3beta2 nAChR Y114S mutant expressed in Xenopus laevis oocytes assessed as inhibition of Ach-induced response at -70 mV holding potential measured after 5 mins by voltage-clamp assay; type: cell-based; conditions: Oocyte
[5] = Antagonist activity at rat alpha3beta2 nAChR D165P mutant expressed in Xenopus laevis oocytes assessed as inhibition of Ach-induced response at -70 mV holding potential measured after 5 mins by voltage-clamp assay; type: cell-based; conditions: Oocyte
[6] = system: Oocyte; assay: Antagonist activity at rat alpha3beta2 nAChR S168I mutant expressed in Xenopus laevis oocytes assessed as inhibition of Ach-induced response at 10 nM at -70 mV holding potential measured after 5 mins by voltage-clamp assay relative to control; type: cell-based; conditions: filed as antagonist
[7] = molecular target: T1, Neuronal acetylcholine receptor; alpha3/beta2 (Rattus norvegicus) (UniProt P04757+P12390); assay: Antagonist activity at wild type rat alpha3beta2 nAChR expressed in Xenopus laevis oocytes assessed as inhibition of Ach-induced response at 1 uM at -70 mV holding potential measured after 5 mins by voltage-clamp assay relative to control; type: cell-based; conditions: Oocyte, filed as antagonist
[8] = system: Oocyte; assay: Antagonist activity at rat alpha3beta2 nAChR S113R mutant expressed in Xenopus laevis oocytes assessed as inhibition of Ach-induced response at 10 nM at -70 mV holding potential measured after 5 mins by voltage-clamp assay relative to control; type: cell-based; conditions: filed as antagonist
[9] = Antagonist activity at rat alpha3beta2 nAChR V166T mutant expressed in Xenopus laevis oocytes assessed as inhibition of Ach-induced response at -70 mV holding potential measured after 5 mins by voltage-clamp assay; type: cell-based; conditions: Oocyte
[10] = system: Oocyte; assay: Antagonist activity at rat alpha3beta2 nAChR F106V mutant expressed in Xenopus laevis oocytes assessed as inhibition of Ach-induced response at 1 uM at -70 mV holding potential measured after 5 mins by voltage-clamp assay relative to control; type: cell-based; conditions: filed as antagonist
[11] = Antagonist activity at rat alpha3beta2 nAChR A110V mutant expressed in Xenopus laevis oocytes assessed as inhibition of Ach-induced response at -70 mV holding potential measured after 5 mins by voltage-clamp assay; type: cell-based; conditions: Oocyte
[12] = Antagonist activity at rat alpha3beta2 nAChR D115N mutant expressed in Xenopus laevis oocytes assessed as inhibition of Ach-induced response at -70 mV holding potential measured after 5 mins by voltage-clamp assay; type: cell-based; conditions: Oocyte
[13] = molecular target: T1, Neuronal acetylcholine receptor; alpha3/beta2 (Rattus norvegicus); assay: Antagonist activity at rat wild-type alpha3beta2 nAChR expressed in Xenopus laevis oocytes assessed as inhibition of Ach-induced response at 10 nM at -70 mV holding potential measured after 5 mins by voltage-clamp assay relative to control; type: cell-based; conditions: Oocyte
[14] = Antagonist activity at rat alpha3beta2 nAChR L169M mutant expressed in Xenopus laevis oocytes assessed as inhibition of Ach-induced response at -70 mV holding potential measured after 5 mins by voltage-clamp assay; type: cell-based; conditions: Oocyte
[15] = Antagonist activity at rat alpha3beta2 nAChR S168I mutant expressed in Xenopus laevis oocytes assessed as inhibition of Ach-induced response at -70 mV holding potential measured after 5 mins by voltage-clamp assay; type: cell-based; conditions: Oocyte
[16] = Displacement of [125I]-alpha-bungarotoxin from Aplysia californica C-terminal His6-tagged N-terminal gp67 signal peptide-tagged acetylcholine receptor binding protein expressed in Hi5 insect cells preincubated for 3 hrs followed by [125I]-alpha-bungarotoxin measured after 5 mins by radioligand binding assay
[17] = Antagonist activity at rat alpha3beta2 nAChR S108T mutant expressed in Xenopus laevis oocytes assessed as inhibition of Ach-induced response at -70 mV holding potential measured after 5 mins by voltage-clamp assay; type: cell-based; conditions: Oocyte
[18] = molecular target: Neuronal acetylcholine receptor; alpha3/beta2 (Rattus norvegicus, UniProt P04757+P12390); assay: Antagonist activity at rat alpha3beta2 nAChR expressed in Xenopus laevis oocytes assessed as inhibition of Ach-induced response at -70 mV holding potential incubated for 5 mins by voltage-clamp assay; type: cell-based, Oocyte
[19] = system: Hi-5; assay: Displacement of [125I]-alpha-bungarotoxin from Aplysia californica C-terminal His6-tagged N-terminal gp67 signal peptide-tagged acetylcholine receptor binding protein expressed in Hi5 insect cells preincubated for 3 hrs followed by [125I]-alpha-bungarotoxin measured after 5 mins by radioligand binding assay relative to LvIA IC50; conditions: time 185.0 min
[20] = system: Oocyte; assay: Antagonist activity at rat alpha3beta2 nAChR S168I mutant expressed in Xenopus laevis oocytes assessed as inhibition of Ach-induced response by measuring recovery of ACh-induced response time at 10 nM with -70 mV holding potential measured after 5 mins voltage-clamp assay; type: cell-based
[21] = species on record: Rattus norvegicus; assay: Selectivity index, ratio of IC50 for rat alpha3beta4 nAChR expressed in Xenopus laevis oocytes to IC50 for rat alpha3beta2 nAChR expressed in Xenopus laevis oocytes; type: cell-based
[22] = molecular target: Neuronal acetylcholine receptor; alpha3/beta4 (Rattus norvegicus) (UniProt P04757+P12392); assay: Antagonist activity at rat alpha3beta4 nAChR expressed in Xenopus laevis oocytes assessed as inhibition of Ach-induced response at -70 mV holding potential incubated for 5 mins by voltage-clamp assay relative to LvIA IC50; type: cell-based; conditions: Oocyte
[23] = molecular target: Neuronal acetylcholine receptor; alpha3/beta4 (Rattus norvegicus, UniProt P04757+P12392); assay: Antagonist activity at rat alpha3beta4 nAChR expressed in Xenopus laevis oocytes assessed as inhibition of Ach-induced response at -70 mV holding potential incubated for 5 mins by voltage-clamp assay; type: cell-based, Oocyte
[24] = molecular target: T1, Neuronal acetylcholine receptor; alpha3/beta2 (Rattus norvegicus); assay: Antagonist activity at rat alpha3beta2 nAChR expressed in Xenopus laevis oocytes assessed as inhibition of Ach-induced response by measuring recovery of ACh-induced response time at 10 nM with -70 mV holding potential measured after 5 mins voltage-clamp assay; type: cell-based; conditions: Oocyte
[25] = molecular target: T1, Neuronal acetylcholine receptor; alpha3/beta2 (Rattus norvegicus); assay: Antagonist activity at rat alpha3beta2 nAChR expressed in Xenopus laevis oocytes assessed as inhibition of Ach-induced response at -70 mV holding potential incubated for 5 mins by voltage-clamp assay relative to LvIA IC50; type: cell-based; conditions: Oocyte

Sequence of Neuronal acetylcholine receptor; alpha3/beta2 (P04757 whole entry): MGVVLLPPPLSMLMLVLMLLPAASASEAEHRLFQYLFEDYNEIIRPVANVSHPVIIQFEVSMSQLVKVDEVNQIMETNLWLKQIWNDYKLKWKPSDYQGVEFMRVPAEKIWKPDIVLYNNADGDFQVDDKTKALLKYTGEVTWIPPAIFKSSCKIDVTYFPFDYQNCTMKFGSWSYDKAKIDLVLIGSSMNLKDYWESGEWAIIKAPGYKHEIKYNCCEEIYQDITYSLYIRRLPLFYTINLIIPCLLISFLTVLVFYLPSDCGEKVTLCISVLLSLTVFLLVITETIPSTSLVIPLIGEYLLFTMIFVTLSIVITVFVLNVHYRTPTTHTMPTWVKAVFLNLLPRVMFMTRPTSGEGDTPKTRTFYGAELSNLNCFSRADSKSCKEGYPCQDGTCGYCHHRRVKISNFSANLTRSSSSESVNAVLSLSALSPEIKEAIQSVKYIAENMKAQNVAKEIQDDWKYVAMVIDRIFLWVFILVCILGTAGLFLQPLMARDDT
Sequence of Neuronal acetylcholine receptor; alpha3/beta2 (P12390 whole entry): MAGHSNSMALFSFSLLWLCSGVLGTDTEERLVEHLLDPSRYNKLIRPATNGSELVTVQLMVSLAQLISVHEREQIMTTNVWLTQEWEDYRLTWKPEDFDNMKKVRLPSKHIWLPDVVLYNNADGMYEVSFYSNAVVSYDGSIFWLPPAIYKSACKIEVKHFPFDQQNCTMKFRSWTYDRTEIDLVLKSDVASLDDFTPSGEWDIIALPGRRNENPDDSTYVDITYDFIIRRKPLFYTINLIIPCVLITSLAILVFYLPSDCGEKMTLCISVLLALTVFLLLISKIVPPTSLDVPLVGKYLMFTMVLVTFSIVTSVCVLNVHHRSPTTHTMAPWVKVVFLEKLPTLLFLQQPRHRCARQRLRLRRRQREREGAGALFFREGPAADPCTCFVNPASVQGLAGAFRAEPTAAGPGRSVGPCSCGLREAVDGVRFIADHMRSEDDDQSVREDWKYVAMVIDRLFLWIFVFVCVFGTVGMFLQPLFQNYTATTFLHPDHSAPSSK
Sequence of Neuronal acetylcholine receptor; alpha3/beta4 (P04757 whole entry): as the sequence (P04757 whole entry) above
Sequence of Neuronal acetylcholine receptor; alpha3/beta4 (P12392 whole entry): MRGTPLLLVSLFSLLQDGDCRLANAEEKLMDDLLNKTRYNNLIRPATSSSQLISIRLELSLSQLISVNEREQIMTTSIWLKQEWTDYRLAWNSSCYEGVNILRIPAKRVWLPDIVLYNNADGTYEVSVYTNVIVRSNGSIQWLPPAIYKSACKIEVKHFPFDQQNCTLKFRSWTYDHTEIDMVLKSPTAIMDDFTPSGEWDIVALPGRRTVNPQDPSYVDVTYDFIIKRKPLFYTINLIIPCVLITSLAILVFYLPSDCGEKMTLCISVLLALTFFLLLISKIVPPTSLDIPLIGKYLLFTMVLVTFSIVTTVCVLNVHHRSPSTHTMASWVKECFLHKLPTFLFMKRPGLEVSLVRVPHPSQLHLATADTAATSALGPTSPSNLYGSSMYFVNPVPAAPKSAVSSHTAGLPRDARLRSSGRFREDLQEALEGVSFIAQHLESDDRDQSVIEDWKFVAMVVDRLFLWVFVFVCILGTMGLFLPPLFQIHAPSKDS

CC[C@H](C)[C@@H]1NC(=O)[C@H](CCC(=O)O)NC(=O)[C@@H]2CCCN2C(=O)[C@H](Cc2cnc[nH]2)NC(=O)[C@H](CC(=O)O)NC(=O)[C@H](C(C)C)NC(=O)[C@H](CC(N)=O)NC(=O)[C@@H]2CSSC[C@H](NC(=O)CN)C(=O)N[C@@H](CSSC[C@@H](C(N)=O)NC1=O)C(=O)N[C@@H](CO)C(=O)N[C@@H](Cc1cnc[nH]1)C(=O)N1CCC[C@H]1C(=O)N[C@@H](C)C(=O)N2
IC50 [1]: 4.1 nM | IC50 [2]: 401 nM | inhibition [3]: 33.4% | IC50 [4]: 31.3 nM | IC50 [5]: 16.6 nM | inhibition [6]: 94.6% | inhibition [7]: 94.4% | inhibition [8]: 91.9% | IC50 [9]: 31.8 nM | inhibition [10]: 55% | IC50 [11]: 54 nM | IC50 [12]: 23.6 nM | inhibition [13]: 28.8% | IC50 [14]: 29.6 nM | IC50 [15]: 0.7 nM | IC50 [16]: 2300 nM | IC50 [17]: 1660 nM

CC[C@H](C)[C@@H]1NC(=O)[C@H](CCC(=O)O)NC(=O)[C@@H]2CCCN2C(=O)[C@H](Cc2cnc[nH]2)NC(=O)[C@H](CC(=O)O)NC(=O)[C@H](C(C)C)NC(=O)[C@H](C)NC(=O)[C@@H]2CSSC[C@H](NC(=O)CN)C(=O)N[C@@H](CSSC[C@@H](C(N)=O)NC1=O)C(=O)N[C@@H](CO)C(=O)N[C@@H](Cc1cnc[nH]1)C(=O)N1CCC[C@H]1C(=O)N[C@@H](C)C(=O)N2 (H-GCCSHPACAVDHPEIC-NH2; disulfide 2-8, 3-16)
IC50 [18]: 2.1 nM | Ratio IC50 [19]: -0.48 | TIME [20]: > 0.333 h | Ratio IC50 [21]: 2030 | Ratio IC50 [22]: 14.7 | IC50 [15]: 0.66 nM | IC50 [16]: 760 nM | IC50 [23]: 4270 nM | TIME [24]: 0.0167 h | Ratio IC50 [25]: 0.13
